Reference: patent US20060281763A1, “Carboxamide inhibitors of TGFbeta” (priority 2005, published 2006)

Biological target: T1, TGFβ R1 (Homo sapiens, UniProt P36897)
T1 sequence (P36897 34-503): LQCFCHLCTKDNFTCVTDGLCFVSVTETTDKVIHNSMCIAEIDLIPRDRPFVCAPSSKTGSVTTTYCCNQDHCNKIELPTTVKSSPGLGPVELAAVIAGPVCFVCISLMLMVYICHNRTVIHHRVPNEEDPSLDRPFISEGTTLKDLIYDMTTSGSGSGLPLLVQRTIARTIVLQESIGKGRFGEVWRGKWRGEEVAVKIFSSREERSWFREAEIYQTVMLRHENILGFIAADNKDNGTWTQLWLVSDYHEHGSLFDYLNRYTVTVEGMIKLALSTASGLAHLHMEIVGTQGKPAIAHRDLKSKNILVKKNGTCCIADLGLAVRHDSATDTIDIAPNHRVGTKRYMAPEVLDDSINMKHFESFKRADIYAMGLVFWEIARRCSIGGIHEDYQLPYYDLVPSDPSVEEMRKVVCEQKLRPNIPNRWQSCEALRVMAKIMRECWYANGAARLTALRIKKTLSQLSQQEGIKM
Assay: TGFβ R1 autophosphorylation protocol (33P-ATP, phosphocellulose filter plate)
Type: biochemical
Details: 10 uM ATP, 170 nM TGFβ R1, room temperature 20 minutes, read-out: IC50 for Kinase Inhibition
In short: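 Incorporation of 33P from γ-33P-ATP (10 uM ATP final) into the kinase itself (170 nM) measured by phosphocellulose capture and scintillation counting. Incubation 20 min at room temperature in 20 mM MOPS pH 7 with […]; final DMSO ≤1%.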

SMILES	IC50
CCNC(=O)[C@@H]1CCCN1CCCNC(=O)c1cnccc1Nc1nc(-c2cc(Cl)ccc2F)ncc1OC [Compound 167, 4-[2-(5-Chloro-2-fluoro-phenyl)-5-methoxy-pyrimidin-4-ylamino]-N-[3-(2-ethylcarbamoyl-pyrrolidin-1-yl)-propyl]-nicotinamide]	28 nM
CC(=O)CNC(=O)c1cnccc1Nc1nc(-c2cc(Cl)ccc2F)ncc1C(C)C [Compound 169, 4-[2-(5-Chloro-2-fluoro-phenyl)-5-isopropyl-pyrimidin-4-ylamino]-N-(2-oxo-propyl)-nicatinamide]	3 nM
COc1cnc(-c2cc(Cl)ccc2F)nc1Nc1ccncc1C(=O)NCCNCC[C@@H]1OC[C@@H](O)[C@H](O)[C@H]1O [Compound 170, 4-[2-(5-Chloro-2-fluoro-phenyl)-5-methoxy-pyrimidin-4-ylamino]-N-{2-[2-(3,4,5-trihydroxy-tetrahydro-pyran-2-yl)-ethylamino]-ethyl}-nicotinamide]	6 nM
CC(C)c1cnc(-c2cc(Cl)ccc2F)nc1Nc1ccncc1C(=O)NC1CC1CO (stereo not drawn) [Compound 172, 4-[2-(5-Chloro-2-fluoro-phenyl)-5-isopropyl-pyrimidin-4-ylamino]-N-(2-hydroxymethyl-cyclopropyl)-nicotinamide]	5 nM
COc1cnc(-c2cc(Cl)ccc2F)nc1Nc1ccncc1C(=O)NCCNCC[C@@H]1O[C@H](CO)[C@@H](O)[C@H]1O [Compound 176, 4-[2-(5-Chloro-2-fluoro-phenyl)-5-methoxy-pyrimidin-4-ylamino]-N-{2-[2-(3,4-dihydroxy-5-hydroxymethyl-tetrahydro-furan-2-yl)-ethylamino]-ethyl}-nicotinamide]	5 nM
CNC(=O)[C@@H]1CCCN1CCCNC(=O)c1cnccc1Nc1nc(-c2cc(Cl)ccc2F)ncc1C(C)C [Compound 177, 4-[2-(5-Chloro-2-fluoro-phenyl)-5-isopropyl-pyrimidin-4-ylamino]-N-[3-(2-methylcarbamoyl-pyrrolidin-1-yl)-propyl]-nicotinamide]	11 nM
CC(C)c1cnc(-c2cc(Cl)ccc2F)nc1Nc1ccncc1C(=O)NCCCN1CCC[C@@H]1C(=O)N1CCCC1 [Compound 180]	5 nM
CC(C)c1cnc(-c2cc(Cl)ccc2F)nc1Nc1ccncc1C(=O)NCCCN1CCC[C@@H]1C(=O)N(C)C [Compound 181, 4-[2-(5-Chloro-2-fluoro-phenyl)-5-isopropyl-pyrimidin-4-ylamino]-N-[3-(2-dimethylcarbamoyl-pyrrolidin-1-yl)-propyl]-nicotinamide]	6 nM
CNC(=O)[C@H]1CCCN1CCCNC(=O)c1cnccc1Nc1nc(-c2cc(Cl)ccc2F)ncc1C(C)C [Compound 182, 4-[2-(5-Chloro-2-fluoro-phenyl)-5-isopropyl-pyrimidin-4-ylamino]-N-[3-(2-methylcarbamoyl-pyrrolidin-1-yl)-propyl]-nicotinamide]	11 nM
CC(C)c1cnc(-c2cc(Cl)ccc2F)nc1Nc1ccncc1C(=O)NCCCN1CCCC[C@H]1C(=O)N1CCCC1 [Compound 183, 4-[2-(5-Chloro-2-fluoro-phenyl)-5-isopropyl-pyrimidin-4-ylamino]-N-{3-[2-(pyrrolidine-1-carbonyl)-piperidin-1-yl]-propyl}-nicotinamide]	21 nM
COc1cnc(-c2cc(Cl)ccc2F)nc1Nc1ccncc1C(=O)NCCNCCOC1O[C@@H](CO)[C@H](O)[C@@H](O)[C@@H]1O (stereo partly drawn) [Compound 185]	9 nM
COCCCNC(=O)c1cnccc1Nc1nc(-c2cc(Cl)ccc2F)ncc1C(C)C [Compound 186, 4-[2-(5-Chloro-2-fluoro-phenyl)-5-isopropyl-pyrimidin-4-ylamino]-N-(3-methoxy-propyl)-nicotinamide]	11 nM
CCOCCCNC(=O)c1cnccc1Nc1nc(-c2cc(Cl)ccc2F)ncc1C(C)C [Compound 187, 4-[2-(5-Chloro-2-fluoro-phenyl)-5-isopropyl-pyrimidin-4-ylamino]-N-(3-ethoxy-propyl)-nicotinamide]	12 nM
COCC(COC)NC(=O)c1cnccc1Nc1nc(-c2cc(Cl)ccc2F)ncc1C(C)C [Compound 195, 4-[2-(5-Chloro-2-fluoro-phenyl)-5-isopropyl-pyrimidin-4-ylamino]-N-(2-methoxy-1-methoxymethyl-ethyl)-nicotinamide]	424 nM
CC(C)c1cnc(-c2cc(Cl)ccc2F)nc1Nc1cc[n+]([O-])cc1C(=O)NCC(C)(C)O [Compound 196, 4-[2-(5-Chloro-2-fluoro-phenyl)-5-isopropyl-pyrimidin-4-ylamino]-N-(2-hydroxy-2-methyl-propyl)-1-oxy-nicotinamide]	245 nM

Further lines, results first:

IC50	SMILES
24 nM	COc1cnc(-c2cc(Cl)ccc2F)nc1Nc1ccncc1C(=O)NCC(C)=O [Compound 168, 4-[2-(5-Chloro-2-fluoro-phenyl)-5-methoxy-pyrimidin-4-ylamino]-N-(2-oxo-propyl)-nicotinamide]
5 nM	CC(C)c1cnc(-c2cc(Cl)ccc2F)nc1Nc1ccncc1C(=O)NCCCN1CCC[C@H]1C(=O)N(C)C [Compound 171, 4-[2-(5-Chloro-2-fluoro-phenyl)-5-isopropyl-pyrimidin-4-ylamino]-N-[3-(2-dimethylcarbamoyl-pyrrolidin-1-yl)-propyl]-nicotinamide]
6 nM	COc1cnc(-c2cc(Cl)ccc2F)nc1Nc1ccncc1C(=O)NCCNCC[C@H]1C[C@H](O)[C@@H](CO)O1 [Compound 173, 4-[2-(5-Chloro-2-fluoro-phenyl)-5-methoxy-pyrimidin-4-ylamino]-N-{2-[2-(4-hydroxy-5-hydroxymethyl-tetrahydro-furan-2-yl)-ethylamino]-ethyl}-nicotinamide]
1160 nM	COc1cnc(-c2cc(Cl)ccc2F)nc1Nc1ccncc1C(=O)N1CC[C@@H](N)C1 [Compound 174, (3-Amino-pyrrolidin-1-yl)-{4-[2-(5-chloro-2-fluoro-phenyl)-5-methoxy-pyrimidin-4-ylamino]-pyridin-3-yl}-methanone]
31 nM	COC(=O)C1CCCN1CCCNC(=O)c1cnccc1Nc1nc(-c2cc(Cl)ccc2F)ncc1OC (stereo not drawn) [Compound 175, 1-[3-({4-[2-(5-Chloro-2-fluoro-phenyl)-5-methoxy-pyrimidin-4-ylamino]-pyridine-3-carbonyl}-amino)-propyl]-pyrrolidine-2-carboxylic acid methyl ester]
3 nM	CC(C)c1cnc(-c2cc(Cl)ccc2F)nc1Nc1ccncc1C(=O)NC1CCN(C)CC1 [Compound 178, 4-[2-(5-Chloro-2-fluoro-phenyl)-5-isopropyl-pyrimidin-4-ylamino]-N-(1-methyl-piperidin-4-yl)-nicotinamide]
5 nM	CC(C)c1cnc(-c2cc(Cl)ccc2F)nc1Nc1ccncc1C(=O)NC1CC1CO (stereo not drawn) [Compound 179, 4-[2-(5-Chloro-2-fluoro-phenyl)-5-isopropyl-pyrimidin-4-ylamino]-N-(2-hydroxymethyl-cyclopropyl)-nicotinamide]
12 nM	CNC(=O)[C@@H]1CCCCN1CCCNC(=O)c1cnccc1Nc1nc(-c2cc(Cl)ccc2F)ncc1C(C)C [Compound 184, 4-[2-(5-Chloro-2-fluoro-phenyl)-5-isopropyl-pyrimidin-4-ylamino]-N-[3-(2-methylcarbamoyl-piperidin-1-yl)-propyl}-nicotinamide]
5 nM	CC(C)c1cnc(-c2cc(Cl)ccc2F)nc1Nc1ccncc1C(=O)NCCCO [Compound 188, 4-[2-(5-Chloro-2-fluoro-phenyl)-5-isopropyl-pyrimidin-4-ylamino]-N-(3-hydroxy-propyl)-nicotinamide]
74 nM	CC(C)OCCCNC(=O)c1cnccc1Nc1nc(-c2cc(Cl)ccc2F)ncc1C(C)C [Compound 189, 4-[2-(5-Chloro-2-fluoro-phenyl)-5-isopropyl-pyrimidin-4-ylamino]-N-(3-isopropoxy-propyl)-nicotinamide]
9 nM	CC(C)c1cnc(-c2cc(Cl)ccc2F)nc1Nc1ccncc1C(=O)NCCCN1CCC[C@H]1C(=O)N1CCCC1 [Compound 190, 4-[2-(5-Chloro-2-fluoro-phenyl)-5-isopropyl-pyrimidin-4-ylamino]-N-{3-[2-(pyrrolidine-1-carbonyl)-pyrrolidine-1-yl]-propyl}-nicotinamide]
13 nM	CC(C)c1cnc(-c2cc(Cl)ccc2F)nc1Nc1ccncc1C(=O)NCCCN1C[C@H](O)C[C@H]1C(=O)N1CCCC1 [Compound 191, 4-[2-(5-Chloro-2-fluoro-phenyl)-5-isopropyl-pyrimidin-4-ylamino]-N-{3-[4-hydroxy-2-(pyrrolidine-1-carbonyl)-pyrrolidin-1-yl]-propyl}-nicotinamide]
122 nM	CCOP(=O)(OCC)OC(C)(C)CNC(=O)c1cnccc1Nc1nc(-c2cc(Cl)ccc2F)ncc1C(C)C [Compound 192]
27 nM	CC(C)c1cnc(-c2cc(Cl)ccc2F)nc1Nc1ccncc1C(=O)NC(CO)CO [Compound 193, 4-[2-(5-Chloro-2-fluoro-phenyl)-5-isopropyl-pyrimidin-4-ylamino]-N-(2-hydroxy-1-hydroxymethyl-ethyl)-nicotinamide]
41 nM	CC(C)c1cnc(-c2cc(Cl)ccc2F)nc1Nc1ccncc1C(=O)NCCC(=O)N1CCC[C@H]1C(=O)N(C)C [Compound 194, 4-[2-(5-Chloro-2-fluoro-phenyl)-5-isopropyl-pyrimidin-4-ylamino]-N-[3-(2-dimethyl-carbamoyl-pyrrolidin-1-yl)-3-oxo-propyl]-nicotinamide]
